# Literature values in patent US20180369425A1, “LINKED AND OTHER pH-TRIGGERED COMPOUNDS” (priority 2017, published 2018).
# Tests used:
# HeLa cells = details: two hours, up to 2 μM; cited from earlier work
# [1] = solvents listed; cited from earlier work
compound,measurement,setting,value
amanitin,cell death with amanitin alone,HeLa cells,does not induce cell death
C#CCNC(=O)CCCCC[N+]1=C(/C=C/C=C/C=C/C=C2\N(CCCCS(=O)(=O)[O-])c3ccc4ccccc4c3C2(C)C)C(C)(C)c2c1ccc1ccccc21 [ICG-alkyne],Solubility,[1],"DMSO, DMF, Acetonitrile, Methanol"
